How the values were obtained:
DU-145 = experiment: Antiproliferative activity against human DU-145 cells assessed as reduction in cell viability incubated for 48 hrs by CCk-8 assay; format: functional, cell-based; conditions: DU-145, 48 h
A549 = experiment: Antiproliferative activity against human A549 cells assessed as reduction in cell viability incubated for 48 hrs by CCk-8 assay; format: functional, cell-based; conditions: A549, 48 h
HeLa = experiment: Antiproliferative activity against human HeLa cells assessed as reduction in cell viability incubated for 48 hrs by CCk-8 assay; format: functional, cell-based
A-375 = experiment: Antiproliferative activity against human A-375 cells assessed as reduction in cell viability incubated for 48 hrs by CCk-8 assay; format: functional, cell-based; conditions: A-375, 48 h
MDA-MB-231 = experiment: Antiproliferative activity against human MDA-MB-231 cells assessed as reduction in cell viability incubated for 48 hrs by CCk-8 assay; format: functional, cell-based; conditions: MDA-MB-231, 48 h
[1] = Antiproliferative activity against human L02 cells assessed as reduction in cell viability incubated for 48 hrs by CCk-8 assay; format: toxicity, cell-based
HepG2 = experiment: Antiproliferative activity against human HepG2 cells assessed as reduction in cell viability incubated for 48 hrs by CCk-8 assay; format: functional, cell-based; conditions: HepG2, 48 h

IC50 (DU-145) [µM] | IC50 (A549) [µM] | IC50 (HeLa) [µM] | IC50 (A-375) [µM] | IC50 (MDA-MB-231) [µM] | IC50 (HepG2) [µM] | SMILES | IC50 at 48 h [1] [µM]
12.7 | 27.6 | 6.48 | > 40 | 33.2 | 13.8 | Oc1ccc(-c2cc(=S)ss2)cc1 | 16.8
> 40 | > 40 | 26.9 | > 40 | > 40 | > 40 | C[C@H]1CCC/C=C/[C@@H]2C[C@H](O)C[C@H]2[C@H](OC(=O)c2ccccc2C(=O)OCCCCOc2ccc(-c3cc(=S)ss3)cc2)/C=C/C(=O)O1 | > 80
> 40 | > 40 | > 40 | > 40 | > 40 | > 40 | C[C@H]1CCC/C=C/[C@@H]2C[C@H](O)C[C@H]2[C@H](OC(=O)c2ccccc2C(=O)OCCCCCCOc2ccc(-c3cc(=S)ss3)cc2)/C=C/C(=O)O1 | > 80
> 40 | > 40 | > 40 | > 40 | > 40 | > 40 | C[C@H]1CCC/C=C/[C@@H]2C[C@H](OC(=O)c3ccccc3C(=O)Oc3ccc(-c4cc(=S)ss4)cc3)C[C@H]2[C@H](OC(=O)c2ccccc2C(=O)Oc2ccc(-c3cc(=S)ss3)cc2)/C=C/C(=O)O1 | > 40
> 40 | > 40 | > 40 | > 40 | > 40 | > 40 | C[C@H]1CCC/C=C/[C@@H]2C[C@H](OC(=O)c3ccccc3C(=O)OCCCCCCOc3ccc(-c4cc(=S)ss4)cc3)C[C@H]2[C@H](OC(=O)c2ccccc2C(=O)OCCCCCCOc2ccc(-c3cc(=S)ss3)cc2)/C=C/C(=O)O1 | > 40
> 40 | > 40 | > 40 | > 40 | > 40 | > 40 | C[C@H]1CCC/C=C/[C@@H]2C[C@H](OC(=O)CCC(=O)OCCCCOc3ccc(-c4cc(=S)ss4)cc3)C[C@H]2[C@H](O)/C=C/C(=O)O1 | > 80
> 40 | > 40 | > 40 | > 40 | > 40 | > 40 | C[C@H]1CCC/C=C/[C@@H]2C[C@H](OC(=O)c3ccccc3C(=O)OCCOc3ccc(-c4cc(=S)ss4)cc3)C[C@H]2[C@H](OC(=O)c2ccccc2C(=O)OCCOc2ccc(-c3cc(=S)ss3)cc2)/C=C/C(=O)O1 | > 40
> 40 | > 40 | > 40 | > 40 | > 40 | > 40 | C[C@H]1CCC/C=C/[C@@H]2C[C@H](O)C[C@H]2[C@H](OC(=O)c2ccccc2C(=O)OCCOc2ccc(-c3cc(=S)ss3)cc2)/C=C/C(=O)O1 | > 80
> 40 | > 40 | 25.2 | > 40 | > 40 | > 40 | C[C@H]1CCC/C=C/[C@@H]2C[C@H](OC(=O)CCC(=O)OCCCCCCOc3ccc(-c4cc(=S)ss4)cc3)C[C@H]2[C@H](O)/C=C/C(=O)O1 | > 80
> 40 | > 40 | > 40 | > 40 | > 40 | > 40 | C[C@H]1CCC/C=C/[C@@H]2C[C@H](OC(=O)CCC(=O)OCCOc3ccc(-c4cc(=S)ss4)cc3)C[C@H]2[C@H](O)/C=C/C(=O)O1 | > 80
> 40 | > 40 | > 40 | > 40 | > 40 | > 40 | C[C@H]1CCC/C=C/[C@@H]2C[C@H](OC(=O)CCC(=O)OCCCCOc3ccc(-c4cc(=S)ss4)cc3)C[C@H]2[C@H](OC(=O)CCC(=O)OCCCCOc2ccc(-c3cc(=S)ss3)cc2)/C=C/C(=O)O1 | > 40
> 40 | > 40 | > 40 | > 40 | > 40 | > 40 | C[C@H]1CCC/C=C/[C@@H]2C[C@H](OC(=O)CCCC(=O)OCCCCOc3ccc(-c4cc(=S)ss4)cc3)C[C@H]2[C@H](OC(=O)CCCC(=O)OCCCCOc2ccc(-c3cc(=S)ss3)cc2)/C=C/C(=O)O1 | > 40
– | 0.014 | 0.034 | 0.059 | 0.33 | 0.55 | CC(=O)O[C@H]1C(=O)[C@@]2(C)[C@H]([C@H](OC(=O)c3ccccc3)[C@]3(O)C[C@H](OC(=O)[C@H](O)[C@@H](NC(=O)c4ccccc4)c4ccccc4)C(C)=C1C3(C)C)[C@]1(OC(C)=O)CO[C@@H]1C[C@@H]2O [PACLITAXEL] | 0.13
> 40 | > 40 | > 40 | > 40 | > 40 | > 40 | C[C@H]1CCC/C=C/[C@@H]2C[C@H](OC(=O)CCCC(=O)OCCOc3ccc(-c4cc(=S)ss4)cc3)C[C@H]2[C@H](OC(=O)CCCC(=O)OCCOc2ccc(-c3cc(=S)ss3)cc2)/C=C/C(=O)O1 | > 40
> 40 | > 40 | > 40 | > 40 | > 40 | > 40 | C[C@H]1CCC/C=C/[C@@H]2C[C@H](OC(=O)CCCC(=O)Oc3ccc(-c4cc(=S)ss4)cc3)C[C@H]2[C@H](OC(=O)CCCC(=O)Oc2ccc(-c3cc(=S)ss3)cc2)/C=C/C(=O)O1 | > 40
> 40 | > 40 | > 40 | > 40 | > 40 | > 40 | C[C@H]1CCC/C=C/[C@@H]2C[C@H](OC(=O)c3ccccc3C(=O)OCCCCOc3ccc(-c4cc(=S)ss4)cc3)C[C@H]2[C@H](OC(=O)c2ccccc2C(=O)OCCCCOc2ccc(-c3cc(=S)ss3)cc2)/C=C/C(=O)O1 | > 40
> 40 | > 40 | > 40 | > 40 | > 40 | > 40 | C[C@H]1CCC/C=C/[C@@H]2C[C@H](OC(=O)CCC(=O)Oc3ccc(-c4cc(=S)ss4)cc3)C[C@H]2[C@H](OC(=O)CCC(=O)Oc2ccc(-c3cc(=S)ss3)cc2)/C=C/C(=O)O1 | > 40
> 40 | > 40 | > 40 | > 40 | > 40 | > 40 | C[C@H]1CCC/C=C/[C@@H]2C[C@H](OC(=O)CCCC(=O)OCCCCCCOc3ccc(-c4cc(=S)ss4)cc3)C[C@H]2[C@H](OC(=O)CCCC(=O)OCCCCCCOc2ccc(-c3cc(=S)ss3)cc2)/C=C/C(=O)O1 | > 40
> 40 | > 40 | 5.68 | > 40 | > 40 | > 40 | C[C@H]1CCC/C=C/[C@@H]2C[C@H](OC(=O)CCC(=O)OCCOc3ccc(-c4cc(=S)ss4)cc3)C[C@H]2[C@H](OC(=O)CCC(=O)OCCOc2ccc(-c3cc(=S)ss3)cc2)/C=C/C(=O)O1 | > 40
